Assay results taken from BindingDB's records for doi:10.1021/jm060460o (University of Michigan, 2006).

Assay: Inhibition of growth of human PC3 cell overexpressing Bcl2

Structure (SMILES)	IC50 [µM]
CC(C)c1cc(C(=O)Nc2ccccc2)c(O)c(O)c1O [2,3,4-trihydroxy-5-isopropyl-N-phenyl-benzamide]	7
CC(C)c1ccccc1Cc1cc(C(=O)Nc2ccc(S(=O)(=O)c3ccccc3C(C)(C)C)cc2)c(O)c(O)c1O [(N-[(2-tert-butylbenzenesulfonyl)phenyl]-2,3,4-trihydroxy-5-(2-isopropylbenzyl)benzamide]	0.2

Results, then the compound that gave them:

IC50 [µM]	Structure (SMILES)
> 100	COc1c(Cc2ccccc2C(C)C)cc(C(=O)Nc2ccc(S(=O)(=O)c3ccccc3C(C)(C)C)cc2)c(OC)c1OC [N-[(2-Tert-butyl-benzenesulfonyl)-phenyl]-2,3,4-trimethoxyl-5-(2-isopropyl-benzyl)-benzamide]
4	O=C(Nc1ccc(S(=O)(=O)c2ccccc2)cc1)c1cc(Cc2ccccc2)c(O)c(O)c1O [N-(benzenesulfonyl-phenyl)-2,3,4-trihydroxy-5-benzyl-benzamide]
5	O=C(Nc1ccccc1)c1cc(Cc2ccccc2)c(O)c(O)c1O [N-phenyl-2,3,4-trihydroxy-5-benzyl-benzamide]
